# ChEMBL document CHEMBL4422615, “Novel non-xanthine antagonist of the A2B adenosine receptor: From HTS hit to lead structure” (Eur J Med Chem, 2019)
# Activity calls are given as the source filed them. The calls are words filed in the database; no cut-off is given here.
# Key:
# [1] = target: Adenosine receptor A2a (Homo sapiens, UniProt P29274); test: Displacement of [3H]CGS21680 from human A2A adenosine receptor expressed in HEK293 cell membranes after 120 mins by radioligand displacement assay
# Adenosine receptor A2a, sequence (P29274 whole entry): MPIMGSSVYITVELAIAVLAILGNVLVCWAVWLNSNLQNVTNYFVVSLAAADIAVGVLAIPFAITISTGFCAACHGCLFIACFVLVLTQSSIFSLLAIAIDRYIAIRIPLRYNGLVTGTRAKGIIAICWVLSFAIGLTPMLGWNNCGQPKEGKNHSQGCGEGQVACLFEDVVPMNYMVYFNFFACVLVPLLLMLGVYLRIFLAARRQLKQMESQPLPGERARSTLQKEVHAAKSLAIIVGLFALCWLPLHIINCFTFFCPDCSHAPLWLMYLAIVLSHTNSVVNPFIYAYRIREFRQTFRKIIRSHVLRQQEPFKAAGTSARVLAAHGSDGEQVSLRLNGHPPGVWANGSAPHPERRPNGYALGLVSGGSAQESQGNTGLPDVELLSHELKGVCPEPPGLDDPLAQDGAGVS
# [2] = Apparent permeability from apical side to basolateral side in human Caco2 cells; format: ADME, cell-based; conditions: Caco-2
# [3] = MRT in mouse at 0.3 mg/kg, iv administered as bolus dose by HPLC-MS/MS analysis; format: ADME, organism-based; conditions: in vivo
# [4] = Half life in dog at 0.3 mg/kg, iv administered as infusion for 15 mins by HPLC-MS/MS analysis; format: ADME, organism-based, Canis lupus familiaris; conditions: in vivo
# [5] = tested on: Mus musculus; test: Antifibrotic activity in FITC-induced C57BL/6J mouse pulmonary fibrosis model assessed as reduction in osteopontin level in BALF at 100 to 500 mg/kg, bid administered via gavage pretreated for 45 mins before FITC addition until 72 hrs after FITC application by ELISA; format: functional, organism-based
# [6] = target: T1, Adenosine receptor A2b (Rattus norvegicus, UniProt P29276); test: Antagonist activity at recombinant rat A2B adenosine receptor expressed in CHO cells after 3 to 4 hrs by luciferase reporter gene assay; format: cell-based
# T1 sequence (P29276 whole entry): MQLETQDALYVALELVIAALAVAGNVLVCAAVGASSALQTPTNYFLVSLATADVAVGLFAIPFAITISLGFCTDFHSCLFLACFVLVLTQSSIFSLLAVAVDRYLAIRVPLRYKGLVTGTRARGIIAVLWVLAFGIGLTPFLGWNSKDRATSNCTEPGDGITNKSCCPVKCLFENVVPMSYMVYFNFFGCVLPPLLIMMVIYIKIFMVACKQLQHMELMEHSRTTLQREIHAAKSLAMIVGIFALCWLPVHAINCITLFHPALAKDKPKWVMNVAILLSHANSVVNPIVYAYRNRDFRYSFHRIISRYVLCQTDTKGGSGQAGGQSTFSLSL
# [7] = target: T2, Adenosine receptor A1 (Homo sapiens, UniProt P30542); test: Displacement of [3H]DPCPX from human A1 adenosine receptor expressed in CHO cell membranes after 60 mins by radioligand displacement assay
# T2 sequence (P30542 whole entry): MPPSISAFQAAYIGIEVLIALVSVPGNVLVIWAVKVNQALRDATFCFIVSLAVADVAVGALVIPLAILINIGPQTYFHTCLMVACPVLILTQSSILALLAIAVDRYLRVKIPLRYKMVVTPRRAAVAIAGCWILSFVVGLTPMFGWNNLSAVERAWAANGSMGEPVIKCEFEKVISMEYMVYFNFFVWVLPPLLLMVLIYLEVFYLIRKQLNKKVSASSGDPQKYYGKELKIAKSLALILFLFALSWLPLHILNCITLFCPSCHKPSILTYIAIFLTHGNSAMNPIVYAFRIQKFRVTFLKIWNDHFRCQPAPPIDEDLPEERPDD
# [8] = Clearance in rat plasma at 0.3 mg/kg, iv administered as bolus dose by HPLC-MS/MS analysis; format: ADME, organism-based
# [9] = Dose normalized AUC in rat at 1 mg/kg, po for 15 mins by HPLC-MS/MS analysis; format: ADME, organism-based; conditions: in vivo, 0.25 h
# [10] = Aqueous solubility of the compound in phosphate buffer at pH 6.5 after 24 hrs by LC/MS/MS analysis; format: physicochemical
# [11] = Oral bioavailability in mouse at 1 mg/kg administered as bolus dose by HPLC-MS/MS analysis; format: ADME, organism-based; conditions: in vivo
# [12] = target: T3, Adenosine receptor A1 (Mus musculus, UniProt Q60612); test: Antagonist activity at recombinant mouse A1 adenosine receptor expressed in CHO cells after 3 to 4 hrs by luciferase reporter gene assay; format: cell-based
# T3 sequence (Q60612 whole entry): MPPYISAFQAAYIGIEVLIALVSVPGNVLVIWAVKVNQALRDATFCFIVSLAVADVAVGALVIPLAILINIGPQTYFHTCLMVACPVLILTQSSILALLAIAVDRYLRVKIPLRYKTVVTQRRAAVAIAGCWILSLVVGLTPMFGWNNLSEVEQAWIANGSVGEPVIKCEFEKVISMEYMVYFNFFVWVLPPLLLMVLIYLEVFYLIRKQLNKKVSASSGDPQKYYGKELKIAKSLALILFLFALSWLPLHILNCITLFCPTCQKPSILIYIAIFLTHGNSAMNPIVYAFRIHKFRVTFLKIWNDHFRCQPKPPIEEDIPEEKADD
# [13] = Clearance in rat blood at 0.3 mg/kg, iv administered as bolus dose by HPLC-MS/MS analysis; format: ADME, organism-based
# [14] = Dose normalized Cmax in dog at 1 mg/kg, po for 15 mins by HPLC-MS/MS analysis; format: ADME, organism-based, Canis lupus familiaris; conditions: in vivo, 0.25 h
# [15] = Oral bioavailability in dog at 1 mg/kg for 15 mins by HPLC-MS/MS analysis; format: ADME, organism-based, Canis lupus familiaris; conditions: in vivo
# [16] = MRT in mouse at 1 mg/kg, iv administered as bolus dose by HPLC-MS/MS analysis; format: ADME, organism-based; conditions: in vivo
# [17] = tested on: Mus musculus; test: Antifibrotic activity in FITC-induced C57BL/6J mouse pulmonary fibrosis model assessed as reduction in lung weight at 100 to 500 mg/kg, bid administered via gavage pretreated for 45 mins before FITC addition until 72 hrs after FITC application; format: functional, organism-based
# [18] = target: T4, Adenosine receptor A3 (Mus musculus, UniProt Q61618); test: Antagonist activity at recombinant mouse A3 adenosine receptor expressed in CHO cells after 3 to 4 hrs by luciferase reporter gene assay; format: cell-based
# T4 sequence (Q61618 whole entry): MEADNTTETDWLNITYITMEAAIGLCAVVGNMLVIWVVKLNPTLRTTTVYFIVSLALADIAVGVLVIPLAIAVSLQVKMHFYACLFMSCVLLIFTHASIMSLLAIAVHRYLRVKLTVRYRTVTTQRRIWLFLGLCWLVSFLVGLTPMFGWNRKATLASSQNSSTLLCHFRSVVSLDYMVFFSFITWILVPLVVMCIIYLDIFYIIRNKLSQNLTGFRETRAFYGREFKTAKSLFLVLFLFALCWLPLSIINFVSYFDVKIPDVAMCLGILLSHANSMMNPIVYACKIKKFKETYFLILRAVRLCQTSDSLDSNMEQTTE
# [19] = Toxicity in FITC-induced C57BL/6J mouse pulmonary fibrosis model assessed as change in body weight administered as bid dose via gavage pretreated for 45 mins before FITC addition until 72 hrs after FITC application; conditions: in vivo, po
# [20] = target: T5, Adenosine receptor A2b (Homo sapiens, UniProt P29275); test: Displacement of [3H]DPCPX from human A2B adenosine receptor expressed in HEK293 cell membranes after 60 mins by radioligand displacement assay
# T5 sequence (P29275 whole entry): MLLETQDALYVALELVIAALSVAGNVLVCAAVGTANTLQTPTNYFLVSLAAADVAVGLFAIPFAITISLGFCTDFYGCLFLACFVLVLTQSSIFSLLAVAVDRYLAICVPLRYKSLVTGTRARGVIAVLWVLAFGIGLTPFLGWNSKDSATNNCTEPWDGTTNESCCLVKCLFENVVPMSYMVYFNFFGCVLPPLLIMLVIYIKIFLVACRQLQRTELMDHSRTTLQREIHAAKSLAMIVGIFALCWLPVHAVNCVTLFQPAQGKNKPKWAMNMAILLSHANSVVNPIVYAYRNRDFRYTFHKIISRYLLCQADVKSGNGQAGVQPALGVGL
compound,measurement,setting,value
CCn1c(=O)c2c(C)c(C(=O)N3CCC(O)CC3)sc2n(CCC(F)(F)F)c1=O,Ki,[1],> 1000 nM
same,Papp A→B,[2],48 ×10⁻⁶ cm/s
same,MRT,[3],0.65 h
same,half-life,[4],6.6 h
same,Activity,[5],Active
same,IC50,[6],280 nM
same,Ki,[7],> 1000 nM
same,clearance,[8],18.3 mL/min/kg
same,AUC/dose,[9],0.78 kg·h/L
same,solubility at 24 h,[10],410 µg/mL
same,bioavailability,[11],65%
same,IC50,[12],> 6700 nM
same,clearance,[13],23.3 mL/min/kg
same,Cmax/dose,[14],0.61 kg/L
same,bioavailability,[15],79%
same,MRT,[16],1.2 h
same,Activity,[17],Active
same,IC50,[18],> 6700 nM
same,Activity,[19],Non-Toxic
same,IC50,[20],59 to 66 nM
